Experimental data reported in ChEMBL document CHEMBL1201862, “PubChem BioAssay data set” (2004).
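Protocol summary: plate cells (96-well), add compound at 5 concentrations, incubate 48 h, interpolate endpoints linearly. Abbreviation: GI50, concentration required for 50% inhibition of growth.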 Active and inactive are the calls of the source. Rule as the data show it: active = GI50 up to about 1.1 µM and inactive = higher.

Key:
Assay in all cases: DTP human tumour cell line panel, 48 h
[1] = test system: DLD-1
[2] = test system: XF498
[3] = test system: SNB-78
[4] = test system: DMS-273
[5] = test system: LXFL 529
[6] = test system: KM-20L2
[7] = test system: RXF 631
[8] = test system: HOP-18
[9] = test system: M19-MEL

O=NN(CCCl)C(=O)NC1CCC(CC2CCC(NC(=O)N(CCCl)N=O)CC2)CC1 (stereo not drawn)
GI50 [1]: 23.6 µM (inactive)
GI50 [2]: 13 µM (inactive)
GI50 [3]: 29.5 µM (inactive)
GI50 [4]: 21.9 µM (inactive)
GI50 [5]: 36.1 µM (inactive)
GI50 [6]: > 74.1 µM (inactive)
GI50 [7]: 41.7 µM (inactive)
GI50 [8]: > 38 µM (inactive)
GI50 [9]: 2.7 µM (inactive)

O=C1CCCn2c3ccccc3c3ccnc1c32
GI50 [1]: 38.3 µM (inactive)
GI50 [2]: 25.4 µM (inactive)
GI50 [3]: 44.8 µM (inactive)
GI50 [4]: 46.6 µM (inactive)
GI50 [6]: 51.3 µM (inactive)
GI50 [8]: 58.3 µM (inactive)
GI50 [9]: 41.5 µM (inactive)

Nc1cc2c(cc1[N+](=O)[O-])[nH]c1c(-c3ccccc3)nccc12
GI50 [1]: 8.2 µM (inactive)
GI50 [2]: 40 µM (inactive)
GI50 [3]: 11.2 µM (inactive)
GI50 [4]: 18.1 µM (inactive)
GI50 [6]: 23.6 µM (inactive)
GI50 [8]: 8.41 µM (inactive)
GI50 [9]: 17.7 µM (inactive)

Cc1cc(O)nc(NN2C(Cl)C(=O)C2c2cccc(O)c2)n1 (stereo not drawn)
GI50 [3]: 7.43 µM (inactive)
GI50 [4]: 3.13 µM (inactive)
GI50 [5]: 5 µM (inactive)
GI50 [6]: 10.3 µM (inactive)
GI50 [8]: 2.39 µM (inactive)
GI50 [9]: 6.19 µM (inactive)

COc1ccc(/C(=N\NC(=O)NN)C(c2ccc(OC)cc2)C2(O)C(=O)Nc3c(Cl)cc(Cl)cc32)cc1 (stereo not drawn)
GI50 [1]: > 100 µM (inactive)
GI50 [2]: > 100 µM (inactive)
GI50 [3]: > 100 µM (inactive)
GI50 [5]: > 100 µM (inactive)
GI50 [6]: > 100 µM (inactive)
GI50 [7]: > 100 µM (inactive)
GI50 [8]: > 100 µM (inactive)
GI50 [9]: > 100 µM (inactive)

Cc1cc(NC(=O)C(=O)Cc2nc3ccccc3s2)ccc1Cl
GI50 [1]: > 100 µM (inactive)
GI50 [2]: > 100 µM (inactive)
GI50 [3]: > 100 µM (inactive)
GI50 [4]: > 100 µM (inactive)
GI50 [5]: > 100 µM (inactive)
GI50 [6]: > 100 µM (inactive)
GI50 [8]: 21.8 µM (inactive)
GI50 [9]: > 100 µM (inactive)

CC(=O)NC1COC(COC(=O)CCCCCCCCCCNC(=O)c2ccc([N+](=O)[O-])c3c(=O)c4ccccc4[nH]c23)C(O)C1OC(C)C(=O)NC(C(=O)NC(CCC(N)=O)C(=O)OCc1ccccc1)C(C)C (stereo not drawn)
GI50 [1]: 3.21 µM (inactive)
GI50 [2]: 5.41 µM (inactive)
GI50 [3]: 10.2 µM (inactive)
GI50 [4]: 8.69 µM (inactive)
GI50 [5]: 17.7 µM (inactive)
GI50 [6]: 16.3 µM (inactive)
GI50 [7]: 27.7 µM (inactive)
GI50 [8]: 16.8 µM (inactive)
GI50 [9]: 3.27 µM (inactive)

Cc1cccc2c1C(=O)OC2(c1cccc2ccccc12)c1cccc2ccccc12
GI50 [1]: > 100 µM (inactive)
GI50 [4]: > 100 µM (inactive)
GI50 [5]: > 100 µM (inactive)
GI50 [6]: > 100 µM (inactive)
GI50 [7]: 11.3 µM (inactive)
GI50 [8]: 52.6 µM (inactive)
GI50 [9]: > 100 µM (inactive)

Cc1c2ccc3ccccc3c2c[n+]2ccccc12
GI50 [1]: 24 µM (inactive)
GI50 [3]: 28.8 µM (inactive)
GI50 [4]: 16.2 µM (inactive)
GI50 [5]: 5.36 µM (inactive)
GI50 [6]: 19.7 µM (inactive)
GI50 [9]: 4.48 µM (inactive)

O=[N+]([O-])c1cccc(C2=NOC3CCCC23)c1 (stereo not drawn)
GI50 [1]: > 100 µM (inactive)
GI50 [3]: > 100 µM (inactive)
GI50 [4]: > 100 µM (inactive)
GI50 [5]: > 100 µM (inactive)
GI50 [8]: > 100 µM (inactive)
GI50 [9]: > 100 µM (inactive)

CCN(CC)C(=S)SS(C)(=O)=O
GI50 [1]: 18 µM (inactive)
GI50 [3]: 23.7 µM (inactive)
GI50 [4]: 20.3 µM (inactive)
GI50 [5]: 16.4 µM (inactive)
GI50 [8]: 38.2 µM (inactive)
GI50 [9]: 16.4 µM (inactive)

C/C=C/CP(=O)(c1ccccc1)c1ccccc1
GI50 [1]: > 100 µM (inactive)
GI50 [2]: > 100 µM (inactive)
GI50 [3]: > 100 µM (inactive)
GI50 [4]: > 100 µM (inactive)
GI50 [5]: > 100 µM (inactive)
GI50 [6]: > 100 µM (inactive)
GI50 [8]: > 100 µM (inactive)
GI50 [9]: > 100 µM (inactive)

CCOC(OCC)(OCC)C(Br)CC (stereo not drawn)
GI50 [1]: 22 µM (inactive)
GI50 [2]: > 100 µM (inactive)
GI50 [3]: > 100 µM (inactive)
GI50 [4]: 19.1 µM (inactive)
GI50 [5]: 51.9 µM (inactive)
GI50 [6]: 11.8 µM (inactive)
GI50 [7]: > 100 µM (inactive)
GI50 [8]: > 100 µM (inactive)
GI50 [9]: > 100 µM (inactive)

COC(=O)C1=C(C)N(NC(=O)c2ccccc2)C2(O)CCCC(=O)C12C (stereo not drawn)
GI50 [1]: > 100 µM (inactive)
GI50 [2]: > 100 µM (inactive)
GI50 [3]: > 100 µM (inactive)
GI50 [4]: > 100 µM (inactive)
GI50 [5]: > 100 µM (inactive)
GI50 [6]: > 100 µM (inactive)
GI50 [7]: > 100 µM (inactive)
GI50 [8]: < 0.01 µM (active)

CC(=O)OCC1OC(Nc2nc(O)n(C)c(=O)c2-c2csc(N)n2)C(OC(C)=O)C(OC(C)=O)C1OC(C)=O (stereo not drawn)
GI50 [1]: > 100 µM (inactive)
GI50 [3]: > 100 µM (inactive)
GI50 [5]: > 100 µM (inactive)
GI50 [6]: > 100 µM (inactive)
GI50 [7]: > 100 µM (inactive)
GI50 [8]: 20 µM (inactive)
GI50 [9]: > 100 µM (inactive)

O=c1c2ccccc2sc2nc(O)nn12
GI50 [1]: > 100 µM (inactive)
GI50 [2]: > 100 µM (inactive)
GI50 [3]: > 100 µM (inactive)
GI50 [4]: > 100 µM (inactive)
GI50 [5]: > 100 µM (inactive)
GI50 [6]: > 100 µM (inactive)
GI50 [7]: > 100 µM (inactive)
GI50 [8]: > 100 µM (inactive)
GI50 [9]: > 100 µM (inactive)

C/C(=C1/N=C(c2cc([N+](=O)[O-])ccc2Cl)N(C2=CC=C(Cl)CC2)C1=O)c1cc2ccccc2oc1=O
GI50 [1]: 20 µM (inactive)
GI50 [3]: 47.9 µM (inactive)
GI50 [5]: 13.1 µM (inactive)
GI50 [6]: 18.7 µM (inactive)
GI50 [7]: 56 µM (inactive)
GI50 [8]: 21.2 µM (inactive)
GI50 [9]: 45.5 µM (inactive)

COc1cccc2c1C(=O)c1c(O)c3c(c(O)c1C2=O)C[C@@](O)(C(=O)CO)CC3OC1CC(NCCCCC(OC(C)=O)OC(C)=O)C(O)C(C)O1 (stereo partly drawn)
GI50 [1]: 0.00342 µM (active)
GI50 [3]: 0.00209 µM (active)
GI50 [5]: 0.00214 µM (active)
GI50 [6]: 0.00242 µM (active)
GI50 [7]: 0.00137 µM (active)
GI50 [8]: 0.0033 µM (active)
GI50 [9]: 0.00345 µM (active)

COc1ccc2[nH]c3c(C)c4cc[n+](C)cc4c(C)c3c2c1
GI50 [1]: 1.87 µM (inactive)
GI50 [3]: 0.571 µM (active)
GI50 [4]: 1.09 µM (active)
GI50 [6]: 3.17 µM (inactive)
GI50 [8]: 3.59 µM (inactive)
GI50 [9]: 0.944 µM (active)

Cn1cnc([N+](=O)[O-])c1Sc1nccc(O)n1
GI50 [1]: > 100 µM (inactive)
GI50 [2]: > 100 µM (inactive)
GI50 [3]: > 100 µM (inactive)
GI50 [4]: > 100 µM (inactive)
GI50 [5]: > 100 µM (inactive)
GI50 [7]: > 100 µM (inactive)
GI50 [8]: > 100 µM (inactive)
GI50 [9]: > 100 µM (inactive)
